# What was measured:
# [1] = target: RAF proto-oncogene serine/threonine-protein kinase (Homo sapiens) (UniProt P04049); experiment: Inhibition of human truncated c-Raf expressed in baculovirus assessed as substrate phosphorylation using fluorescence-labelled peptides as substrate at 8 uM after 90 mins by microfluidic peptide phosphorylation assay
# [2] = target: Tyrosine-protein kinase Lck (Homo sapiens) (UniProt P06239); experiment: Inhibition of human full length LCK expressed in baculovirus assessed as substrate phosphorylation using fluorescence-labelled peptides as substrate at 8 uM after 90 mins by microfluidic peptide phosphorylation assay
# [3] = target: Tyrosine-protein kinase ABL1 (Homo sapiens) (UniProt P00519); experiment: Inhibition of human full-length ABL expressed in baculovirus assessed as substrate phosphorylation using fluorescence-labelled peptides as substrate at 8 uM after 90 mins by microfluidic peptide phosphorylation assay
# [4] = target: MAP kinase-activated protein kinase 3 (Homo sapiens) (UniProt Q16644); experiment: Inhibition of human full length MAPKAPK3 expressed in Escherichia coli cell assessed as substrate phosphorylation using fluorescence-labelled peptides as substrate at 0.2 uM after 90 mins by microfluidic peptide phosphorylation assay
# [5] = target: Ribosomal protein S6 kinase alpha-2 (Homo sapiens) (UniProt Q15349); experiment: Inhibition of human full length RSK3 expressed in baculovirus assessed as substrate phosphorylation using fluorescence-labelled peptides as substrate at 2 uM after 90 mins by microfluidic peptide phosphorylation assay
# [6] = target: Hepatocyte growth factor receptor (Homo sapiens) (UniProt P08581); experiment: Inhibition of human MET cytoplasmic domain expressed in baculovirus assessed as substrate phosphorylation using fluorescence-labelled peptides as substrate at […] after 90 mins by microfluidic peptide phosphorylation assay
# [7] = target: Insulin-like growth factor 1 receptor (Homo sapiens) (UniProt P08069); experiment: Inhibition of human IGF1R catalytic domain expressed in baculovirus assessed as substrate phosphorylation using fluorescence-labelled peptides as substrate at 9 uM after 90 mins by microfluidic peptide phosphorylation assay
# [8] = target: Casein kinase I isoform alpha (Homo sapiens) (UniProt P48729); experiment: Inhibition of human full length CSNK1A1 expressed in baculovirus assessed as substrate phosphorylation using fluorescence-labelled peptides as substrate at 95 uM after 90 mins by microfluidic peptide phosphorylation assay
# [9] = target: T1, Cytoplasmic tyrosine-protein kinase BMX (Homo sapiens) (UniProt P51813); experiment: Inhibition of human full length BMX expressed in baculovirus assessed as substrate phosphorylation using fluorescence-labelled peptides as substrate at 1000 uM after 90 mins by microfluidic peptide phosphorylation assay
# T1 sequence (whole entry): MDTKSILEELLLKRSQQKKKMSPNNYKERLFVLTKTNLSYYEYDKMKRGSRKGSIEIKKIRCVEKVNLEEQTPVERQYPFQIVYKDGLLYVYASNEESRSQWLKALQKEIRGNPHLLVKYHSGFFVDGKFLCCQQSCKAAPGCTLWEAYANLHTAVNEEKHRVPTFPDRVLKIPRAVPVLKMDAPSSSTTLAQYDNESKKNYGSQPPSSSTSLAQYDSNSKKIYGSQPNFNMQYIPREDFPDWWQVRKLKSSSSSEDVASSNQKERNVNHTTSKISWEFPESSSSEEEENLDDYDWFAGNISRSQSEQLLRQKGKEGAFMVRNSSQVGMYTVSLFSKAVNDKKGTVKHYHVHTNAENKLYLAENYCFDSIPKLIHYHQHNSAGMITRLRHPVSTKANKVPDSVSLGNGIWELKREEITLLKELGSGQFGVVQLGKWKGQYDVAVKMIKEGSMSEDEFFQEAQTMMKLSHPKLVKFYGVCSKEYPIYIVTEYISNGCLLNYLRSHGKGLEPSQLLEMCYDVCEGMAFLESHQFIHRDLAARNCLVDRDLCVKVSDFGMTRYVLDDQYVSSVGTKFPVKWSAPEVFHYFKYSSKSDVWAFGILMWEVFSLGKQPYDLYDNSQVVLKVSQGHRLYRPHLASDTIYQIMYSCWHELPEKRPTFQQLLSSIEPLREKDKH
# [10] = target: T2, cGMP-dependent protein kinase 1 (Homo sapiens) (UniProt Q13976); experiment: Inhibition of human full length PKG-1beta expressed in baculovirus assessed as substrate phosphorylation using fluorescence-labelled peptides as substrate at 70 uM after 90 mins by microfluidic peptide phosphorylation assay
# T2 sequence (whole entry): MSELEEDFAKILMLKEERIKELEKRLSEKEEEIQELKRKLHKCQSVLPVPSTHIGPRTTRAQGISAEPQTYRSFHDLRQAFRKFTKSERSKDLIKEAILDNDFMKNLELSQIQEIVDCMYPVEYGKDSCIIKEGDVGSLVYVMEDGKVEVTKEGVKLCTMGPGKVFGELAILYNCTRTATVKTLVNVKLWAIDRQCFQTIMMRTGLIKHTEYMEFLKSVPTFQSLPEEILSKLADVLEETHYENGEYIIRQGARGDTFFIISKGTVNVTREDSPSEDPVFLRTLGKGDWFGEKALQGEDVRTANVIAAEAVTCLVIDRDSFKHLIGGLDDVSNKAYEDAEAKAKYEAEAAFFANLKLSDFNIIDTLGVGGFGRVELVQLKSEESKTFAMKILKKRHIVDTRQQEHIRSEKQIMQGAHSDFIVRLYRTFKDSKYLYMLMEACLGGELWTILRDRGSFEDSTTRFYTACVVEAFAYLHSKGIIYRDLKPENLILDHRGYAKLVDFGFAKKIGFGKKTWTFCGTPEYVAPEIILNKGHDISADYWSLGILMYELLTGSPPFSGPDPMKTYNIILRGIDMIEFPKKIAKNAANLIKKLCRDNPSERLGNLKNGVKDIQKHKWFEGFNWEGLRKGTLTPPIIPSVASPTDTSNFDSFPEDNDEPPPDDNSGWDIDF
# [11] = test system: Tyrosine-protein kinase ABL1 (Homo sapiens), P00519 [H396P]; experiment: Inhibition of human truncated ABL H396P mutant expressed in baculovirus assessed as substrate phosphorylation using fluorescence-labelled peptides as substrate at 70 uM after 90 mins by microfluidic peptide phosphorylation assay
# [12] = target: Fibroblast growth factor receptor 4 (Homo sapiens) (UniProt P22455); experiment: Inhibition of human FGFR4 catalytic domain expressed in baculovirus assessed as substrate phosphorylation using fluorescence-labelled peptides as substrate at 420 uM after 90 mins by microfluidic peptide phosphorylation assay
# Sequence of Fibroblast growth factor receptor 4 (Homo sapiens) (P22455 22-802 limits assumed): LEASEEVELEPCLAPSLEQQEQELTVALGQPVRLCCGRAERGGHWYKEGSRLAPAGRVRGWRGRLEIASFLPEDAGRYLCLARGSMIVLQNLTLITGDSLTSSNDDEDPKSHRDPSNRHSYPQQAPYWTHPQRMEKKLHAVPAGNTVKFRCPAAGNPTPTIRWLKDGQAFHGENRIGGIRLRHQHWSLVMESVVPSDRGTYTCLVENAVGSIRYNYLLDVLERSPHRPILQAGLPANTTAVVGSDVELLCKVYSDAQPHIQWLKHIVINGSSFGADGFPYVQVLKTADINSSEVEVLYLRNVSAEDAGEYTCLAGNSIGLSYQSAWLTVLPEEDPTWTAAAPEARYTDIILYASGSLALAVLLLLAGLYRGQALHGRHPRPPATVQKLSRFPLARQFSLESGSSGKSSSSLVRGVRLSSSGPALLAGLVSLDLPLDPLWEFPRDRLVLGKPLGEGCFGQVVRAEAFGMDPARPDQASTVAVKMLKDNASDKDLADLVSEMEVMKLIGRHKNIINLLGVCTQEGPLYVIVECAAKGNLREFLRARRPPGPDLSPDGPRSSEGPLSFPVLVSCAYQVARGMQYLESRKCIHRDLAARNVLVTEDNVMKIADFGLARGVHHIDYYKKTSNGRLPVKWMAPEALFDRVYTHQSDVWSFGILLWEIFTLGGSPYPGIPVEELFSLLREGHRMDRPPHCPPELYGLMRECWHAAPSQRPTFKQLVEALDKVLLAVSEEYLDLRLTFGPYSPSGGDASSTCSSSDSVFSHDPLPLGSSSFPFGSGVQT
# Sequence of Casein kinase I isoform alpha (Homo sapiens) (P48729 2-337 limits assumed): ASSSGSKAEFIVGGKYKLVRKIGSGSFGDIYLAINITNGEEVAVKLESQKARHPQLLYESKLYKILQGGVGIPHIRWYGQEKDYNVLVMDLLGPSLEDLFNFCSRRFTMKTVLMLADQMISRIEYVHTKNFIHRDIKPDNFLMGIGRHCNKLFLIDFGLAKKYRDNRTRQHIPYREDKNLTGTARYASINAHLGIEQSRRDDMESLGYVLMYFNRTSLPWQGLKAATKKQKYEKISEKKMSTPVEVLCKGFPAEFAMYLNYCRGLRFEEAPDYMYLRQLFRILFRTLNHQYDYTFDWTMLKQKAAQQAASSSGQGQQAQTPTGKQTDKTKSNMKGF
# Sequence of RAF proto-oncogene serine/threonine-protein kinase (Homo sapiens) (P04049 whole entry, the tested form may be a part): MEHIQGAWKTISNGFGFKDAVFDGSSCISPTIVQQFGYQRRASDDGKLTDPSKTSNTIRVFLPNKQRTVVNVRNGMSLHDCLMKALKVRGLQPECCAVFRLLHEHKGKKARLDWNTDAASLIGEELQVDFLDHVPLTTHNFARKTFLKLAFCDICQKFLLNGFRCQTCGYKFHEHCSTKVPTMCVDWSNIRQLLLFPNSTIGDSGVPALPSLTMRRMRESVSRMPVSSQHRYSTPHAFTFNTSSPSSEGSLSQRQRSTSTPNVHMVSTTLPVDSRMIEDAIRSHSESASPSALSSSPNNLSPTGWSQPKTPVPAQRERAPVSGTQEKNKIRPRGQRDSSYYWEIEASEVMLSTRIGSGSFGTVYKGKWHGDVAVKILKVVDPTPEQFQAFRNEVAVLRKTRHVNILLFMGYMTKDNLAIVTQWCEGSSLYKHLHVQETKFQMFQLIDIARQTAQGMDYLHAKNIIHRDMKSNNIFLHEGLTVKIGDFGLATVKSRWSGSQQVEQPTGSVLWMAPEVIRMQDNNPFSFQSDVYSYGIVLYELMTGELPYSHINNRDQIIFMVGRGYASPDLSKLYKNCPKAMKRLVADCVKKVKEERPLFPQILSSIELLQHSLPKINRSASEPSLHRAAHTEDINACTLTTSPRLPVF
# Sequence of Hepatocyte growth factor receptor (Homo sapiens) (P08581 whole entry, the tested form may be a part): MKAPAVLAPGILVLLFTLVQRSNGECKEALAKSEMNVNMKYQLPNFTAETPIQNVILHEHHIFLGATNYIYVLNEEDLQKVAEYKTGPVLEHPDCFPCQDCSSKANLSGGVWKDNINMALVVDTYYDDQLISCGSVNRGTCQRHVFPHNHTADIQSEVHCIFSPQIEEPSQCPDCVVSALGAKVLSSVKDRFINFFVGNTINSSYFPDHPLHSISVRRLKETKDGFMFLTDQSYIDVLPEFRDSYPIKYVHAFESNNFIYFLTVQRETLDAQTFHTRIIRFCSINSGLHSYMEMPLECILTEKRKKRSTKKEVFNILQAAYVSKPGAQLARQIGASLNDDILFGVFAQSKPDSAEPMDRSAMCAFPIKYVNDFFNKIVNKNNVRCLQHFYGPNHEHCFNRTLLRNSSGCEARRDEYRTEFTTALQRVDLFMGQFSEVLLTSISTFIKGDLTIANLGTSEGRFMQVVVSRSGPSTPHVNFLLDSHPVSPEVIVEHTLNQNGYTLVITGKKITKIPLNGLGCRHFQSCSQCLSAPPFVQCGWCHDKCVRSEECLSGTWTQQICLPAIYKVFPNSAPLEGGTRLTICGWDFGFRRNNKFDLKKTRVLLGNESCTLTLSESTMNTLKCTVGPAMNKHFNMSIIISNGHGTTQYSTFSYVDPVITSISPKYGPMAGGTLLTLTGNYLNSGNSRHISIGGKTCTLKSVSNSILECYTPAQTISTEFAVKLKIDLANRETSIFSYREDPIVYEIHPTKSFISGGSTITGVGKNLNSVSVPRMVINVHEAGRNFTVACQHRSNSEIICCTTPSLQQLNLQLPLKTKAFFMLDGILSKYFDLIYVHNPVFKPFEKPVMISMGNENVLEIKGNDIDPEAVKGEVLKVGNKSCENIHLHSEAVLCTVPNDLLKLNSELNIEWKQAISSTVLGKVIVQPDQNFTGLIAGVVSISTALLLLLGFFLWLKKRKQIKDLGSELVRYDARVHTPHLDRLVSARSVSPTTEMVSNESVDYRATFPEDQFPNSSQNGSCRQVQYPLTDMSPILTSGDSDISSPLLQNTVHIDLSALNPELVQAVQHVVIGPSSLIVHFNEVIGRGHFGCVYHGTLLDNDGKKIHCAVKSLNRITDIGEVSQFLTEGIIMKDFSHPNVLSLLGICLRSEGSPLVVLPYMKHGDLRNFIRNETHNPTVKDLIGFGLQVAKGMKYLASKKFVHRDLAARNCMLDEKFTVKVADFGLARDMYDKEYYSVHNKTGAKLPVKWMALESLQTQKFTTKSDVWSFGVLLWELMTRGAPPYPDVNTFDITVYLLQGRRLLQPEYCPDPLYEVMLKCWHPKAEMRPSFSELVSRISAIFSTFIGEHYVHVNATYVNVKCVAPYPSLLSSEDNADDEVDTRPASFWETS
# Sequence of MAP kinase-activated protein kinase 3 (Homo sapiens) (Q16644 whole entry, looked up): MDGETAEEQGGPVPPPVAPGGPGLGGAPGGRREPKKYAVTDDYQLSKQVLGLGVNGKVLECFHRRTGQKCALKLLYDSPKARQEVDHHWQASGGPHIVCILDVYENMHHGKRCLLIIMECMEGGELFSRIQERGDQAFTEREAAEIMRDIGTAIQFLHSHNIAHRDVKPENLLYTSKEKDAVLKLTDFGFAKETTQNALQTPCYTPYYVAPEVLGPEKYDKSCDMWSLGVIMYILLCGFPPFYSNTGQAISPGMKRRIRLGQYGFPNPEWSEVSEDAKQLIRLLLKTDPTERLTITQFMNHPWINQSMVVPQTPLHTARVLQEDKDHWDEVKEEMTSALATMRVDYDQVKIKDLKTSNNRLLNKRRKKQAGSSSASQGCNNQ
# Sequence of Ribosomal protein S6 kinase alpha-2 (Homo sapiens) (Q15349 whole entry, the tested form may be a part): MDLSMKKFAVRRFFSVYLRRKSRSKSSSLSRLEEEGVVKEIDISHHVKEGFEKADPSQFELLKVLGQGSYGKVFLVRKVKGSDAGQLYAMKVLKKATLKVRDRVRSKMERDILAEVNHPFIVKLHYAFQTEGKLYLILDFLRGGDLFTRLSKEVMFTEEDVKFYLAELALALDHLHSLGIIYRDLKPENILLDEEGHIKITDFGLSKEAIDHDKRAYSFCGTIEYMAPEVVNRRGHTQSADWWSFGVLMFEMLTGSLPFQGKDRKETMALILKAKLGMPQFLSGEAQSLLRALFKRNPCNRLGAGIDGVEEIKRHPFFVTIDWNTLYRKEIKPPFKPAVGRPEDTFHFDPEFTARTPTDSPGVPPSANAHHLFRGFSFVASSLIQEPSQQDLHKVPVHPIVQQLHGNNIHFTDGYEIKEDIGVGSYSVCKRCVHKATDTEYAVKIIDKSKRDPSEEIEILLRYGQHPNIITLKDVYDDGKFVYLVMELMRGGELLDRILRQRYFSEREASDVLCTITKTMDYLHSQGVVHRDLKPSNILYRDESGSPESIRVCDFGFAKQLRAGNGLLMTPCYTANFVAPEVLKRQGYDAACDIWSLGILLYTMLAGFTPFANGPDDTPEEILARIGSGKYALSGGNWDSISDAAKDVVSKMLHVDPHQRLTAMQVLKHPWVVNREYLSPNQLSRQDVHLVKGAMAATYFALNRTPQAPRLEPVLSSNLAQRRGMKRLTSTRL
# Sequence of Tyrosine-protein kinase Lck (Homo sapiens) (P06239 2-509 limits assumed): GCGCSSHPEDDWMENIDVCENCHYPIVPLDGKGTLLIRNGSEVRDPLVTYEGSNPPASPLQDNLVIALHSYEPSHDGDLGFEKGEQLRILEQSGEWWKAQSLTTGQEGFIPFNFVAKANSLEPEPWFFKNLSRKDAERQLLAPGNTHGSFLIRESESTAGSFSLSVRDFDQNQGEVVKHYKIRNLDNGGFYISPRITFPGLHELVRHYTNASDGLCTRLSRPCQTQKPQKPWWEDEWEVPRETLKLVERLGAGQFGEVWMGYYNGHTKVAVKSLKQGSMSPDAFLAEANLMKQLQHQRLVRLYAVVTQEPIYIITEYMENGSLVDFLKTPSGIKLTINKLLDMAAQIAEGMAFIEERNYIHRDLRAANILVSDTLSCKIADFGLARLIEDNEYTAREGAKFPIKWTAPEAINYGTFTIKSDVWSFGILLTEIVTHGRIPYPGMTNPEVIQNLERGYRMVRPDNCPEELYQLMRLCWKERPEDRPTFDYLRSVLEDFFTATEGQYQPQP
structure (smiles),measurement,setting,value
NCC1CCN(c2ncnc3[nH]ccc23)CC1,inhibition,[1],2.5%
same,inhibition,[2],48.5%
same,inhibition,[3],57.5%
Clc1ccc(C2(c3ccc(-c4ncnc5[nH]cnc45)cc3)CCNCC2)cc1,inhibition,[4],4%
NC1CCN(c2ncnc3[nH]ccc23)CC1,inhibition,[5],0%
COC(=O)c1cnc(Nc2cnc(C#N)cn2)cc1NCC1CCNCC1,inhibition,[6],2.5%
NCC1CN(c2ncnc3[nH]c4cnccc4c23)CCO1 (configuration not stated),inhibition,[7],10%
NCCc1ccc(-c2ncnc3[nH]cnc23)cc1,inhibition,[8],53.5%
c1cnc2[nH]ccc2c1,inhibition,[9],22%
CNCc1ccc(-c2ncnc3[nH]cnc23)cc1,inhibition,[10],95.5%
same,inhibition,[11],42.5%
c1nc(N2CCOCC2)c2nc[nH]c2n1,inhibition,[12],75.5%

# From ChEMBL document CHEMBL3132769, “Fragment growing to retain or alter the selectivity of anchored kinase hinge-binding fragments” (Medchemcomm, 2014)
